# Experimental data from PubChem BioAssay (NCI).
#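 The compound was tested at five concentrations on cells cultured in 96-well plates, with a 48-hour exposure period. At the GI50, growth is halved. Definition used: TGI = concentration required for complete inhibition of growth.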
# Key:
# Experiment in all cases: DTP human tumour cell line panel, 48 h
# NCI/ADR-RES ovarian = test system: NCI/ADR-RES ovarian
# HL-60(TB) leukemia = test system: HL-60(TB) leukemia
# NCI-H460 lung = test system: NCI-H460 lung
# ACHN renal = test system: ACHN renal
# SK-OV-3 ovarian = test system: SK-OV-3 ovarian
# TK-10 renal = test system: TK-10 renal
# MDA-MB-468 breast = test system: MDA-MB-468 breast
# PC-3 prostate = test system: PC-3 prostate
# SF-295 CNS = test system: SF-295 CNS
# HCT-15 colon = test system: HCT-15 colon
# CAKI-1 renal = test system: CAKI-1 renal
# SF-539 CNS = test system: SF-539 CNS
# OVCAR-4 ovarian = test system: OVCAR-4 ovarian
# RXF 393 renal = test system: RXF 393 renal
# NCI-H23 lung = test system: NCI-H23 lung
# A549 NSCLC = test system: A549 NSCLC
# HOP-62 NSCLC = test system: HOP-62 NSCLC
# CCRF-CEM leukemia = test system: CCRF-CEM leukemia
# RPMI-8226 leukemia = test system: RPMI-8226 leukemia
# OVCAR-8 ovarian = test system: OVCAR-8 ovarian
# T-47D breast = test system: T-47D breast
# IGROV1 ovarian = test system: IGROV1 ovarian
# COLO 205 colon = test system: COLO 205 colon
# SK-MEL-28 melanoma = test system: SK-MEL-28 melanoma
# MCF7 breast = test system: MCF7 breast
# NCI-H522 lung = test system: NCI-H522 lung
# UACC-257 melanoma = test system: UACC-257 melanoma
# SR leukemia = test system: SR leukemia
# KM12 colon = test system: KM12 colon
# 786-0 renal = test system: 786-0 renal
# NCI-H226 lung = test system: NCI-H226 lung
# UACC-62 melanoma = test system: UACC-62 melanoma
# A498 renal = test system: A498 renal
# SF-268 CNS = test system: SF-268 CNS
# SN12C renal = test system: SN12C renal
# HOP-92 NSCLC = test system: HOP-92 NSCLC
# SW-620 colon = test system: SW-620 colon
# MDA-MB-435 = test system: MDA-MB-435
# BT-549 breast = test system: BT-549 breast
# HT29 colon = test system: HT29 colon
# EKVX NSCLC = test system: EKVX NSCLC
# HCT-116 colon = test system: HCT-116 colon
# HCC-2998 colon = test system: HCC-2998 colon
# DU-145 prostate = test system: DU-145 prostate
# MOLT-4 leukemia = test system: MOLT-4 leukemia
# HS 578T breast = test system: HS 578T breast
# OVCAR-3 ovarian = test system: OVCAR-3 ovarian
# OVCAR-5 ovarian = test system: OVCAR-5 ovarian
# SNB-19 CNS = test system: SNB-19 CNS
# MALME-3M melanoma = test system: MALME-3M melanoma
# U251 CNS = test system: U251 CNS
# SK-MEL-5 melanoma = test system: SK-MEL-5 melanoma
# K-562 leukemia = test system: K-562 leukemia
# LOX IMVI melanoma = test system: LOX IMVI melanoma
# M14 melanoma = test system: M14 melanoma
compound,measurement,setting,value
CC[C@]12C=CCN3CC[C@@]4(c5ccc(OC)cc5N(C)[C@H]4[C@@](O)(C(=O)OC)[C@@H]1OC(=O)CCC[P+](c1ccc(F)cc1)(c1ccc(F)cc1)c1ccc(F)cc1)[C@@H]32,GI50,NCI/ADR-RES ovarian,> 48.5 µM
same,TGI,NCI/ADR-RES ovarian,> 48.5 µM
same,GI50,HL-60(TB) leukemia,1.77 µM
same,TGI,HL-60(TB) leukemia,7.82 µM
same,GI50,NCI-H460 lung,17 µM
same,TGI,NCI-H460 lung,> 48.5 µM
same,GI50,ACHN renal,> 48.5 µM
same,TGI,ACHN renal,> 48.5 µM
same,GI50,SK-OV-3 ovarian,15.8 µM
same,TGI,SK-OV-3 ovarian,> 48.5 µM
same,GI50,TK-10 renal,22.2 µM
same,TGI,TK-10 renal,> 48.5 µM
same,GI50,MDA-MB-468 breast,1.5 µM
same,TGI,MDA-MB-468 breast,6.3 µM
same,GI50,PC-3 prostate,12.6 µM
same,TGI,PC-3 prostate,> 48.5 µM
same,GI50,SF-295 CNS,> 48.5 µM
same,TGI,SF-295 CNS,> 48.5 µM
same,GI50,HCT-15 colon,> 48.5 µM
same,TGI,HCT-15 colon,> 48.5 µM
same,GI50,CAKI-1 renal,> 48.5 µM
same,TGI,CAKI-1 renal,> 48.5 µM
same,GI50,SF-539 CNS,16.8 µM
same,TGI,SF-539 CNS,> 48.5 µM
same,GI50,OVCAR-4 ovarian,16.2 µM
same,TGI,OVCAR-4 ovarian,> 48.5 µM
same,GI50,RXF 393 renal,8.46 µM
same,TGI,RXF 393 renal,30.7 µM
same,GI50,NCI-H23 lung,15.8 µM
same,TGI,NCI-H23 lung,> 48.5 µM
same,GI50,A549 NSCLC,21.2 µM
same,TGI,A549 NSCLC,> 48.5 µM
same,GI50,HOP-62 NSCLC,20.5 µM
same,TGI,HOP-62 NSCLC,> 48.5 µM
same,GI50,CCRF-CEM leukemia,12.7 µM
same,TGI,CCRF-CEM leukemia,37.4 µM
same,GI50,RPMI-8226 leukemia,2.05 µM
same,TGI,RPMI-8226 leukemia,9.33 µM
same,GI50,OVCAR-8 ovarian,18.4 µM
same,TGI,OVCAR-8 ovarian,> 48.5 µM
same,GI50,T-47D breast,10.5 µM
same,TGI,T-47D breast,> 48.5 µM
same,GI50,IGROV1 ovarian,7.09 µM
same,TGI,IGROV1 ovarian,18.2 µM
same,GI50,COLO 205 colon,4.98 µM
same,TGI,COLO 205 colon,11.1 µM
same,GI50,SK-MEL-28 melanoma,5.34 µM
same,TGI,SK-MEL-28 melanoma,11.6 µM
same,GI50,MCF7 breast,8.26 µM
same,TGI,MCF7 breast,30.8 µM
same,GI50,NCI-H522 lung,3.88 µM
same,TGI,NCI-H522 lung,32 µM
same,GI50,UACC-257 melanoma,4.67 µM
same,TGI,UACC-257 melanoma,12 µM
same,GI50,SR leukemia,7.45 µM
same,TGI,SR leukemia,17.3 µM
same,GI50,KM12 colon,8.96 µM
same,TGI,KM12 colon,20.6 µM
same,GI50,786-0 renal,> 48.5 µM
same,TGI,786-0 renal,> 48.5 µM
same,GI50,NCI-H226 lung,24.2 µM
same,TGI,NCI-H226 lung,> 48.5 µM
same,GI50,UACC-62 melanoma,6.05 µM
same,TGI,UACC-62 melanoma,12.3 µM
same,GI50,A498 renal,> 48.5 µM
same,TGI,A498 renal,> 48.5 µM
same,GI50,SF-268 CNS,15 µM
same,TGI,SF-268 CNS,> 48.5 µM
same,GI50,SN12C renal,14.8 µM
same,TGI,SN12C renal,> 48.5 µM
same,GI50,HOP-92 NSCLC,5.44 µM
same,TGI,HOP-92 NSCLC,19.9 µM
same,GI50,SW-620 colon,18.3 µM
same,TGI,SW-620 colon,> 48.5 µM
same,GI50,MDA-MB-435,8.14 µM
same,TGI,MDA-MB-435,18.5 µM
same,GI50,BT-549 breast,8.13 µM
same,TGI,BT-549 breast,26.5 µM
same,GI50,HT29 colon,12.5 µM
same,TGI,HT29 colon,> 48.5 µM
same,GI50,EKVX NSCLC,19.4 µM
same,TGI,EKVX NSCLC,> 48.5 µM
same,GI50,HCT-116 colon,14.8 µM
same,TGI,HCT-116 colon,> 48.5 µM
same,GI50,HCC-2998 colon,9.53 µM
same,TGI,HCC-2998 colon,30 µM
same,GI50,DU-145 prostate,23.7 µM
same,TGI,DU-145 prostate,> 48.5 µM
same,GI50,MOLT-4 leukemia,9.69 µM
same,TGI,MOLT-4 leukemia,> 48.5 µM
same,GI50,HS 578T breast,11.8 µM
same,TGI,HS 578T breast,42.4 µM
same,GI50,OVCAR-3 ovarian,6.47 µM
same,TGI,OVCAR-3 ovarian,40.7 µM
same,GI50,OVCAR-5 ovarian,20.8 µM
same,TGI,OVCAR-5 ovarian,> 48.5 µM
same,GI50,SNB-19 CNS,11.4 µM
same,TGI,SNB-19 CNS,> 48.5 µM
same,GI50,MALME-3M melanoma,6.85 µM
same,TGI,MALME-3M melanoma,14 µM
same,GI50,U251 CNS,9.36 µM
same,TGI,U251 CNS,> 48.5 µM
same,GI50,SK-MEL-5 melanoma,8.26 µM
same,TGI,SK-MEL-5 melanoma,15.7 µM
same,GI50,K-562 leukemia,9.83 µM
same,TGI,K-562 leukemia,> 48.5 µM
same,GI50,LOX IMVI melanoma,16.6 µM
same,TGI,LOX IMVI melanoma,> 48.5 µM
same,GI50,M14 melanoma,9.1 µM
same,TGI,M14 melanoma,28.9 µM
